According to patent US20030180385A1 (priority 2002, published 2003):
Like-named read-outs stand apart in the source and are kept apart here. Marks after values point to notes of the source that are not given here.

Key:
bacteria = type: cell-based
[1] = 8 hours steeping
Fusarium graminearum = type: cell-based; conditions: for % of Fusarium graminearum: barley var. Lacey
barley seeds = conditions: in vivo
[2] = wheat seeds; 1% concentration; cited from earlier work
Alternaria spp. = type: cell-based; conditions: barley var. Lacey
[3] = DON variation during the malting process; conditions: for % DON reduction: H process
Protocol: The goal of this experiment was to follow the main steps of malt production for DON increase or decrease when barley seeds were submitted to the hypochlorite process during the first steeping, compared with the same seed not submitted to the hypochlorite process. Two samples of 1000 grams of barley seeds infected with 3.2 ppm of DON were malted and their DON contents were measured during the following steps:
1. On 50 grams of seeds just after the first steeping (7 hours steep)
2. On 50 grams of seeds just after the second steeping (5 hours steep)
3. On 50 grams of seeds on the second day of malting (half malting)
4. On 50 grams of seeds on the fourth day of malting (end of malting)
5. On 50 grams of seeds after the fist step of kilning (6 hours at 45° C.)
6. On 50 grams of seeds after the second step of kilning (3 hours at 65° C.)
7. On 50 grams of seeds after the third step of kilning (2 hours at 85° C.)
8. Control (dry seeds without treatment).

Fusarium = conditions: literature reports; cited from earlier work
[4] = Table 6, means of 50 seeds plated in ¼ PDA medium

Compound	Bacteria (%) (bacteria)	Germin. (%) (barley seeds)	Fusarium (%) (Fusarium graminearum)	% Bacteria (bacteria) [%]	% Germination (barley seeds) [%]	also measured
CC(=O)O [Ac. Ac. Glacial 0.5, glacial acetic acid]	2	8	–	–	–	Total % of DON reduction ([1]; Table 4): 62.9%; DON ([1]; Table 4, dry seeds 9.7): 3.6 µg/mL; Fusarium (%) (Fusarium graminearum; Table 4, 8 hours steeping): 4%
CC(=O)OO [Ac. Perac. 0.25%, peracetic acid]	62	76	2%	–	–	–
CCO [Alco. 10%, Alcohol]	100	2	44* %	–	–	–
CC(=O)O [Ac. Ac. Glacial 0.25%, glacial acetic acid]	6	64	–	–	–	Total % of DON reduction ([1]; Table 4): 71.1%; DON ([1]; Table 4, dry seeds 9.7): 2.8 µg/mL; Fusarium (%) (Fusarium graminearum; Table 4, 8 hours steeping): 2%
O=C([O-])O.[Na+] [NaHCO3 (0.5%), sodium bicarbonate]	–	–	–	84	88	% Fusarium (Fusarium graminearum; [4]): 72%
O=C([O-])O.[Na+] [NaHCO3 (0.25%), sodium bicarbonate]	–	–	–	70	90	% Fusarium (Fusarium graminearum; [4]): 52%
CC(=O)OO [Ac. Perac. 1.0%, peracetic acid]	4	0	4%	–	–	–
CC(=O)OO [Ac. Perac. 0.5%, peracetic acid]	28	28	4%	–	–	–
CCOC(C)=O [Eth. Ac. 10%, Ethyl Acetate]	4	0	–	–	–	Total % of DON reduction ([1]; Table 3): 70%; DON ([1]; Table 3, dry seeds 10.9): 3.3 µg/mL; Fusarium (%) (Fusarium graminearum; Table 3, 8 hours steeping): 0%
CCO [Alco. 1%, Alcohol]	94	72	94%	–	–	–
CCOC(C)=O [Eth. Ac. 1%, Ethyl Acetate]	90	6	–	–	–	Total % of DON reduction ([1]; Table 3): 68%; DON ([1]; Table 3, dry seeds 10.9): 3.5 µg/mL; Fusarium (%) (Fusarium graminearum; Table 3, 8 hours steeping): 88%
OCl [sodium hypochlorite]	–	–	–	–	–	increase of the level of the toxin (DON) [2]: 24%; level of the toxin (DON) after treatment [2]: 1.24 ppm
[Cl-].[Na+] [Salt 5%, NaCl]	78	80	–	–	–	Total % of DON reduction ([1]; Table 3): 77%; DON ([1]; Table 3, dry seeds 10.9): 2.5 µg/mL; Fusarium (%) (Fusarium graminearum; Table 3, 8 hours steeping): 84%
[Na+].[OH-] [NaOH 1.0%, sodium hydroxide]	6	66	2%	–	–	–
[K+].[OH-] [KOH (0.25%), potassium hydroxide]	–	–	–	82	94	% Fusarium (Fusarium graminearum): 76%
[K+].[OH-] [KOH (0.5%), potassium hydroxide]	–	–	–	44	96	% Fusarium (Fusarium graminearum): 44%
OO [H2O2 1.0%, peroxide]	47	94	38%	–	–	–
OCl [Hypochlorite 0.8%, hypochlorite]	2	80	–	0	88	% of Alternaria spp. (Alternaria spp.; 2 min. disinfestations): 66%; % of Alternaria spp. (Alternaria spp.; 3 min. disinfestations): 68%; Total % of DON reduction ([1]; Table 4): 87.6%; DON ([1]; Table 4, dry seeds 9.7): 1.2 µg/mL; Fusarium (%) (Fusarium graminearum; Table 4, 8 hours steeping): 2%; % Fusarium (Fusarium graminearum; [4]): 8%; % of Fusarium graminearum (Fusarium graminearum; 2 min. disinfestations): 20%; % of Fusarium graminearum (Fusarium graminearum; 3 min. disinfestations): 18%
OCl [hypochlorite]	–	–	–	–	–	DON levels on "H" process (b) ([3]; 1. After the first steeping, seeds with 3.2 ppm DON): 0.7 ppm; DON levels on "H" process (b) ([3]; 2. After the second steeping): 0.4 ppm; DON levels on "H" process (b) ([3]; 3. Second day of malting): 0.4 ppm; DON levels on "H" process (b) ([3]; 4. Fourth day of malting): 0.4 ppm; DON levels on "H" process (b) ([3]; 5. Fist step of kilning): 0.3 ppm; DON levels on "H" process (b) ([3]; 6. Second step of kilning): 0.3 ppm; DON levels on "H" process (b) ([3]; 7. Third step of kilning): 0.4 ppm; % DON reduction ([3]; 1. After the first steeping): 78.1%; % DON reduction ([3]; 2. After the second steeping): 87.5%; % DON reduction ([3]; 3. Second day of malting): 87.5%; % DON reduction ([3]; 4. Fourth day of malting): 87.5%; % DON reduction ([3]; 5. Fist step of kilning): 90.6%; % DON reduction ([3]; 6. Second step of kilning): 90.6%; % DON reduction ([3]; 7. Third step of kilning): 87.5%; Fusarium reduction from seeds (Fusarium): ≤ 50%
CC(=O)OO [Ac. Perac. 0.1%, peracetic acid]	48	94	56%	–	–	–
CC(=O)O [Ac. Ac. Glacial 1.0, glacial acetic acid]	0	0	–	–	–	Total % of DON reduction ([1]; Table 4): 71.1%; DON ([1]; Table 4, dry seeds 9.7): 2.8 µg/mL; Fusarium (%) (Fusarium graminearum; Table 4, 8 hours steeping): 2%
[Cl-].[Na+] [Salt 1%, NaCl]	76	72	–	–	–	Total % of DON reduction ([1]; Table 3): 71%; DON ([1]; Table 3, dry seeds 10.9): 3.1 µg/mL; Fusarium (%) (Fusarium graminearum; Table 3, 8 hours steeping): 90%
[Na+].[OH-] [NaOH 0.25%, sodium hydroxide]	80	96	88%	44	94	% Fusarium (Fusarium graminearum): 44%
O=P([O-])([O-])O.[Na+].[Na+] [Na2HPO4 (0.5%), sodium phosphate dibasic]	–	–	–	72	94	% Fusarium (Fusarium graminearum; [4]): 70%
OO [H2O2 3.0%, peroxide]	62	92	20%	–	–	–
[Na+].[OH-] [NaOH 0.5%, sodium hydroxide]	50	88	68%	8	96	% Fusarium (Fusarium graminearum): 40%
O=P([O-])([O-])O.[Na+].[Na+] [Na2HPO4 (0.25%), sodium phosphate dibasic]	–	–	–	68	98	% Fusarium (Fusarium graminearum; [4]): 68%
[Na+].[OH-] [NaOH 0.1%, sodium hydroxide]	74	76	76%	–	–	–
CC(=O)OO [Ac. Perac. 2.0%, peracetic acid]	0	0	2%	–	–	–
